The record followed here is patent US10543246B2, “Composition for preventing or treating hyperlipidemia” (HAWON PHARM. CORPORATION, priority 2014, dated 2020).

Common to all, as to format: in vivo, SD rats (Sprague-Dawley rats)
In experiment [1] the test system is SD rats with a high cholesterol diet (hyperlipidemia model). Kind of experiment: Measurement of blood lipid in high cholesterol diet SD rats. Conditions: Ex. compositions 1000 mg/kg/day, atorvastatin 5 mg/kg/day.
Experiment [2] has the same test system. As to the kind of experiment: Lipid analysis of liver tissue in high cholesterol diet SD rats. The following applies: liver lipid extract, oral, Ex. compositions 1,000 mg/kg, atorvastatin 5 mg/kg. As for the experimental part:
(§1) 6-Week-old male SD rats (Sprague-Dawley rats, body weight 180-220 g) were purchased from BioLink (Eumseong, Republic of Korea) and acclimated for a week. They were formed into groups of five rats as described in Table 2 below, and solid feed (Rodent NIH031 Open Formula Auto, Zeigler Bros., USA) and a high cholesterol diet (D12451 with 1.25% cholesterol, Research Diets Inc., USA) were freely fed. Drinking water was freely supplied. A room temperature of 22.0+/−2.0° C., a relative humidity of 50.0+/−10.0%, an illumination time of 12 hours (08:00 to 20:00), and an illuminance of 150 to 300 lux were set.
The total lipids in the liver were homogenized and then extracted using a Folch method. The extracted lipids were dissolved in an isopropanol solution, and then with the SPECTROstar Nano (BMG Labtech, Germany), total cholesterol and triglycerides in […] were colorimetrically quantified at 500 nm and 550 nm, respectively, using an enzyme reagent kit (Asan Pharmaceutical Co., Ltd., Seoul, Republic of Korea).

Experiment [3] shares this test system. As to the kind of experiment: Measurement of body weight and liver weight, visual inspection of liver tissue. The following applies: oral, 4 weeks, Ex. compositions 1,000 mg/kg, atorvastatin 5 mg/kg, mean of five rats. Here is the method: as §1
The body weight before drug administration and the body weight after the end of the experiment were measured. The liver weight was measured by weighing the liver extracted after lethal bleeding on the day of autopsy, and visual inspection of liver tissue was performed.

Molecules are shown by their SMILES.

In the case of `CC(C)c1c(C(=O)Nc2ccccc2)c(-c2ccccc2)c(-c2ccc(F)cc2)n1CC[C@@H](O)C[C@@H](O)CC(=O)O` [Atorvastatin], the “Cardiac Risk Factor (CRF)” value in experiment [1] ((TC)/(HDL-c)) was 2.6. The same molecule registered an LDL/HDL in experiment [1] of 0.9. Further, in experiment [2], the “Hepatic total cholesterol concentration” value was found to be 146 mg/dL and the Hepatic triglyceride concentration came to 197 mg/dL. Further, in experiment [3], the Body weight was 571.6 g, the Liver weight was 24.5 g and the “Liver weight/Body weight” value is 4.26%.
